One assay addresses T1, GABAB receptors (Rattus norvegicus, UniProt Q9Z0U4).
T1 construct: Slices (0.25 x 0.25 x 2.0 mm) of rat cerebral cortex; from tissue; host or cells: rat cerebral cortex slices
Nature of the assay: Procedure 1: inhibition of potassium-evoked [14C]-noradrenaline release from rat cerebral cortex slices. Type of assay: cell-based. To be noted: for inhibition at 10 µM: 10^-5M, potassium-evoked noradrenaline release, rat cortex slices, failure to inhibit indicates no GABAB agonist activity. How it is done:
(§1) The following test procedures were used to measure activity at (a) GABA autoreceptors and GABAB receptors by inhibition of potassium-evoked GABA and noradrenalin release from rat cortex in vitro (Procedure 1); and (b) GABAA receptors by enhancement of [3H]-flunitrazepam binding in rat cortex in vitro (Procedure 2):
(§2) Slices (0.25 x 0.25 x 2.0 mm) of rat cerebral cortex are prepared using a McIlwain tissue chopper. The slices are incubated in Krebs-Henseleit solution containing [³H]-GABA (10⁻⁷M) and [¹⁴C]-noradrenaline (10⁻⁷M) in the presence of amino-oxyacetic acid (AOAA) (10⁻⁵M), pargyline (10⁻⁶M) and ascorbic acid (10⁻⁴M), for 20 minutes at 37°C, rinsed with 5 ml aliquots of Krebs-Henseleit solution and transferred to 10 superfusion chambers (volume 300»l). The slices are continuously superfused with Krebs-Henseleit solution (0.4 ml min⁻¹) containing AOAA (10⁻⁵M) and fractions of the superfusate collected every 4 minutes. Transmitter release is induced by 4 minute exposure to a Krebs-Henseleit solution containing 25 mM potassium (with concomitant reduction in sodium to maintain osmolarity) after 68 (S₁) and 92 (S₂) minutes of superfusion. The compound under study is added to the superfusing medium 20 minutes prior to the second potassium stimulation. The residual radioactivity in the slices at the end of the experiment together with that in the superfusate fractions is measured by liquid scintillation counting using a dual label programme for tritium and carbon-14. Calculations: The amount of radioactivity (either tritium or carbon-14) in each fraction is expressed as a percentage of the respective total radioactivity in the tissue at the start of the respective collection period. The amount of radioactivity released above basal by the increased potassium is calculated and the ratio S2/S1 obtained. The S2/S1 ratio from drug-treated slices is expressed as a percentage of the control S2/S1 ratio. For compounds achieving inhibition of 30% or more pD₂ values are calculated from plots of inhibition of release versus concentration of drug.

The subject of another assay is GABAA receptors. Briefly: Procedure 2: enhancement of [3H]-flunitrazepam binding in rat cortex membranes. To be noted: for Enhancement of [3H]-flunitrazepam binding: 20nM [3H]-flunitrazepam, rat cortex membranes, 30 minutes at 37°C. How it is done: as §1
Cortices from six or more rats are excised and homogenised in 50 volumes (volume/weight) 50mM Tris buffer (pH 7.4 at 37°C) using a Polytron homogeniser on speed 5 for 30 seconds. Tissue is kept at O°C throughout the procedure. The homogenate is centrifuged at 40,000 x g for 15 minutes and the pellet resuspended (Polytron 5, 10 sec.) in 50 volumes (original weight) of Tris buffer. Centrifugation and resuspension is repeated followed by incubation at 37°C for 10 minutes. The homogenate is centrifuged (40,000 x g, 15 min), resuspended in 10 volumes (original weight) Tris and stored below -20°C for more than 24 hours.
On the day of the experiment, membranes are thawed at 37°C and made up to 20 volumes (original weight) with Tris Krebs (20mM, see below). The membranes are homogenised (Polytron 5, 30 sec), incubated at 37°C for 15 minutes and centrifuged at 20,000 x g for 10 minutes. This wash and resuspension is repeated two more times with the final pellet resuspended in 100 volumes (original weight) Tris Krebs ready for use.
The test compound (50»l) and 20nM (final concentration) [³H]-flunitrazepam (50»l) are dispensed in triplicate. The reaction is started by the addition of 900»l of membrane preparation. After a 30 minute incubation at 37°C the reaction is stopped by filtration through Whatman GF/B filters under reduced pressure using a Brandell Cell Harvester, with two 7.5 ml filter washings. The radioactivity retained on the filters is measured by liquid scintillation counting. Tris Krebs composition: NaCl-136mM, KCl-5mM, MgSO₄-2mM, KH₂PO₄-2mM, CaCl₂-2mM, Tris buffer (pH 7.4 at 37°C)-20mM, ascorbic acid-lmM, disodium ethylenediamine tetraacetic acid-lmM.
Calculations: Results are calculated as follows: [formula]

In assay [1] the test system is GABA autoreceptor. Briefly: Procedure 1: inhibition of potassium-evoked [3H]-GABA release from rat cerebral cortex slices. Type of assay: cell-based. As to conditions: for GABA autoreceptor pD2 values: inhibition of 25 mM potassium-evoked [3H]-GABA release, rat cortex slices in vitro. How it is done: as §1
as §2, with “ratio.” for “ratio. For compounds achieving inhibition of 30% or more pD₂ values are calculated from plots of inhibition of release versus concentration of drug.”

For assay [2], the system named is postsynaptic GABAA receptors. Briefly: Procedure 3: drug ejected onto nigral neurones in vivo, test of postsynaptic GABAA receptor effect. On the set-up: species or system rat. As to conditions: anaesthetized male albino rats; ejected iontophoretically in the vicinity of nigral neurones. Here is the method:
(§3) Experiments were performed on male albino rats (240-280g) lightly anaesthetized with urethane (1.2-1.4 g/kg i.p.) or Halothane (0.7-1.0% in 0₂). The animal's temperature was maintained between 36-38°C via a thermostatically controlled heating blanket.
(§4) The caudate nucleus and substantia nigra were approached dorsally after exposing the overlying cortex. Pulsations of the brain and cerebral oedema were minimised by allowing cerebral spinal fluid to leak from a cisternal puncture. The exposed cortex was bathed in warm liquid paraffin throughout the experiment. A coaxial bipolar stimulating electrode (tip separation 0.25mm) was positioned stereotaxically in the caudate nucleus such that the tip of the electrode corresponded to the area delineated by the co-ordinates L 2.5; A 8.5-95; D 5. (Paxinos and Watson 1986). […]
(§5) Extracellular recordings were obtained from single neurones in the ipsilateral substantia nigra via either the centre barrel (3.5M NaCl) of a multibarrelled microelectrode or a single barrelled electrode (3.5M NaCl), attached to but protruding 10-20 » beyond, a multibarrelled electrode. […] Effects of agonist drugs on the GABA autoreceptor could be measured as an attenuation of the synaptic inhibition evoked by stimulation of the caudate. […]

The subject of assay [3] is GABA autoreceptor. Nature of the assay: Procedure 3: effect on a GABA synapse in vivo, caudate-evoked synaptic inhibition of nigral neurones, iontophoretic ejection. On the set-up: species or system rat. As to conditions: anaesthetized male albino rats; ejected iontophoretically in the vicinity of nigral neurones; action reversible. Here is the method: The compounds were also tested for their effect on a GABA synapse in vivo in the following procedure:
as §3, §4, §5

T1 sequence (Q9Z0U4 20-960): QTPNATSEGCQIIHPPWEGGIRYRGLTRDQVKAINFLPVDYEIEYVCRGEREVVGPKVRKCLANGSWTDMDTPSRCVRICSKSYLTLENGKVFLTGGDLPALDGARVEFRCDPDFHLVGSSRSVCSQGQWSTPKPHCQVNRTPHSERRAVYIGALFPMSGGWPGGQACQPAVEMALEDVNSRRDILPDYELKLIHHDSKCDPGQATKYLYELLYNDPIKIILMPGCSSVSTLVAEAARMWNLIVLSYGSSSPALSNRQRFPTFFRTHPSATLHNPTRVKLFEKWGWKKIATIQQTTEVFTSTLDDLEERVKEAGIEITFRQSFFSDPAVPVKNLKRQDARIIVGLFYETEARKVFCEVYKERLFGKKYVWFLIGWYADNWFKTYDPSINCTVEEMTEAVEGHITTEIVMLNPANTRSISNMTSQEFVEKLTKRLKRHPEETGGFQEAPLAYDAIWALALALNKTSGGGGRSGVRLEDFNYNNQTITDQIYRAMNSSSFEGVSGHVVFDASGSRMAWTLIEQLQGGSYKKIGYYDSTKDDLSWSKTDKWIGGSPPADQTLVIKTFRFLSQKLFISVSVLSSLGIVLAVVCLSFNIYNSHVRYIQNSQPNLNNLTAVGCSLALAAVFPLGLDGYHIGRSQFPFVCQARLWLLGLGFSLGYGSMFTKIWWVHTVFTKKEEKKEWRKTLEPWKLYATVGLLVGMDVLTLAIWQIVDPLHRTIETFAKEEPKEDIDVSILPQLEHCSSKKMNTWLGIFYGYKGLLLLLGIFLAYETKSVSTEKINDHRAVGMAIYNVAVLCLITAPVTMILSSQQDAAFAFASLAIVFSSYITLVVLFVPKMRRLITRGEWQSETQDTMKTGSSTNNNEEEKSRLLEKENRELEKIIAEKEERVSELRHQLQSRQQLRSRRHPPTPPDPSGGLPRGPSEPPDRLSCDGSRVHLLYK
T1 sequence (O88871 41-940 partner): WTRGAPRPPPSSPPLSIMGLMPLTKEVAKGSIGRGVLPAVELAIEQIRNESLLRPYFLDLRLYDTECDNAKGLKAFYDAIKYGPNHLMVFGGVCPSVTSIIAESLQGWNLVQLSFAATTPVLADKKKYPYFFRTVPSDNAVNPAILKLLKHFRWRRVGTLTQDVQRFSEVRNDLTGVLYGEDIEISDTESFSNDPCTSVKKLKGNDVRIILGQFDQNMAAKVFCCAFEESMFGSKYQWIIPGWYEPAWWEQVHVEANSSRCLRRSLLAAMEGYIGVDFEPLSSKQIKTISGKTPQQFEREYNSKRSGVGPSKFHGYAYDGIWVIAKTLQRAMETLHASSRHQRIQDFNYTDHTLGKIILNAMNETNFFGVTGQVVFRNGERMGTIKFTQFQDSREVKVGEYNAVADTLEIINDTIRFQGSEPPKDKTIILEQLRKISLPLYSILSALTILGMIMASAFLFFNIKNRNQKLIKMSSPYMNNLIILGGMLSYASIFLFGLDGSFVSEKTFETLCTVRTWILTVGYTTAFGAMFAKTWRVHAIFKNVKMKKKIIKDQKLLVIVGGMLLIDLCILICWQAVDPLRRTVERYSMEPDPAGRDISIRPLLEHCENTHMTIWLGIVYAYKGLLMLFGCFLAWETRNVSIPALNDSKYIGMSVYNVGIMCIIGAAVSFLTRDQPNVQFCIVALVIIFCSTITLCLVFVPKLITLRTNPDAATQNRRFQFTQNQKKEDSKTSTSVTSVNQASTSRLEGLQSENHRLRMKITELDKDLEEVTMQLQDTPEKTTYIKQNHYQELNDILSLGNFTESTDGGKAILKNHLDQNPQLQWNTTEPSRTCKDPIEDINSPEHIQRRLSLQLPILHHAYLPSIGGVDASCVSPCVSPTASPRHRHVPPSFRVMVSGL

`O=C(O)CCCN(Cc1ccc(Cl)cc1)Cc1ccc(Cl)cc1` [Example 2, 4-[N,N-Bis-(4-Chlorobenzyl)amino]butyric acid] had an inhibition at 10 µM on GABAB receptors of 0%. The “Enhancement of [3H]-flunitrazepam binding” value (“Enhancement” for short) in the assay with GABAA receptors worked out at 0. Besides, the “GABA autoreceptor pD2 values” with GABA autoreceptor [1] is given as 7.0.
Turning to `NC(=O)CCCN(Cc1ccc(Cl)cc1)Cc1ccc(Cl)cc1` [Example 3, 4-[N,N-Bis-(4-chlorobenzyl)amino]butyramide], at GABAB receptors, 10 µM produced 0% inhibition. In addition, the “Enhancement” value in the assay on GABAA receptors came out at 0. The “GABA autoreceptor pD2 values” with GABA autoreceptor [1] was determined as 6.6.
At GABAB receptors, `NC(=O)CCCN(Cc1ccccc1)Cc1ccccc1` [Example 4, 4-(N,N-Dibenzylamino)butyramide] showed an inhibition at 10 µM of more than 20%. For the same molecule, the “Enhancement” value with GABAA receptors was 0. Besides, the “GABA autoreceptor pD2 values” in the assay on GABA autoreceptor [1] was determined as 7.0.
With `O=C(O)CCCN(Cc1ccccc1)Cc1ccccc1` [Example 5, 4-(N,N-Dibenzylamino)butyric acid], the “effect on postsynaptic GABAA receptors” value in assay [2] is “without affecting”. The inhibition at 10 µM on GABAB receptors was 20%. In addition, the “Enhancement” value in the assay on GABAA receptors is listed as 0. For the same molecule, in the assay with GABA autoreceptor [3], the “synaptically-evoked, GABA-mediated inhibition in the substantia nigra” value was “almost abolished”. For the same molecule, the “GABA autoreceptor pD2 values” with GABA autoreceptor [1] came out at 7.1.
In the case of `Cc1ccc(CN(CCCC(=O)O)Cc2ccc(C)cc2)cc1` [Example 8, 4-[N,N-Bis-(4-methylbenzyl)amino]butyric acid], 10 µM produced 10% inhibition on GABAB receptors. Moreover, the “Enhancement” value with GABAA receptors turned out to be 0. The “GABA autoreceptor pD2 values” with GABA autoreceptor [1] worked out at 7.4.
On the same counts, the results for `O=C(O)CCCN(Cc1ccc(Cl)c(Cl)c1)Cc1ccc(Cl)c(Cl)c1` [Example 10, 4-[N,N-Bis-(3,4-dichlorobenzyl)amino]butyric acid] are 0%, 0 and 7.5.
In the same order, the values of `COc1ccc(CN(CCCC(N)=O)Cc2ccc(OC)cc2)cc1` [Example 12, 4-[N,N-Bis-(4-Methoxybenzyl)amino]butyramide] are 0%, 0 and 6.0.
In the same order, the values of `CN(CCCC(N)=O)Cc1ccc(Cl)cc1` [Example 24, 4-[(N-(p-Chlorobenzyl)-N-methyl)amino]butyramide] are 0%, 0 and 7.5.
For the molecule `NC(=O)CCC/N=C(\c1ccc(Cl)cc1)c1cc(F)ccc1O` [Progabide, reference compound], the “activity at the GABA autoreceptor” value in the assay on GABA autoreceptor [1] (in vitro) is listed as “active”.
Regarding `CCCC/N=C(/c1cc(Cl)ccc1O)c1ccccc1Cl` [fengabine, reference compound], the “activity at GABAB sites in vitro” value at GABAB receptors (in vitro) is recorded as “little or no activity”. Moreover, the “activity at GABAA sites in vitro” value in the assay on GABAA receptors (in vitro) was “little or no activity”. Moreover, the “GABA autoreceptor pD2 values” with GABA autoreceptor [1] is reported as 8.0.

A word on the inhibition: it is how much of the control response was suppressed. Low readings indicate a weak effect, high ones a strong effect.

For the origin of these results see patent publication EP0345068B1, “Agonist of gamma-aminobutyric acid” (JOHN WYETH & BROTHER LIMITED, priority 1988, dated 1989).
